Paper PMC8389037, “Design, Synthesis and Antifungal Activity of Stapled Aurein1.2 Peptides” (Antibiotics, 2021)
Where a SMILES comes first, the peptide text is derived from it. Bridges are numbered along the chain shown (N, C = ends). [ ]: non-standard residue; d: D form. S5 = C=CCCC[C@](C)(N)C(=O)O

Assays:
Assay in all cases: microbe, parasite or virus in culture
[1] = test system: C. glabrata 896; conditions: for Minimum inhibitory concentration (MIC): 896, 48 h
Protocol: (§1) The in vitro antifungal activities of the target peptides were evaluated according to protocols from the CLSI. The broth microdilution method was used to determine the minimum inhibitory concentration (MIC) of the target peptides in 96-well plates. Fluconazole was used as a reference drug.
(§2) Clinical isolates of C. albicans SC5314, 901, 904, C. tropicalis ATCC20026 and clinical isolate 895, C. glabrata ATCC1182 and clinical isolate 896, C. krusei ATCC2340, and C. parapsilosis ATCC22010 are from the collection library in the Drug Discovery and Development Center, Naval Medical University, Shanghai, China. C. auris clinical isolates are provided by Linqi Wang (Institute of Microbiology, Chinese Academy of Sciences) and Changbin Chen (Institut Pasteur of Shanghai, Chinese Academy of Sciences). All strains were cultured in YPD (1% yeast extract, 2% peptone, and 2% glucose) liquid medium overnight at 30 °C with shaking at 220 rpm.
(§3) The MICs of chemicals against all strains were determined by the micro broth dilution method according to the Clinical and Laboratory Standards Institute (Wayne PA, Reference Method for Broth Dilution Antifungal Susceptibility Testing of yeasts, approved Standard M27-A3, 3 rd ed; Clinical and Laboratory Standards Institute (CLSI): USA, 2008). The initial concentration of fungal suspension in RPMI 1640 medium was 3–5 × 10^3 colonies forming unit (CFU)/mL, which was added to 96-well plates. Peptides were prepared in dimethyl sulfoxide (DMSO) with an initial stored concentration of 6.4 mg/mL. Serial dilutions were made based on the CLSI M27 guide to obtaining the final concentrations ranging from 0.125 to 64 μg/mL for fluconazole and 0.25 to 128 μg/mL for peptides […]. The plates were incubated at 30 °C for 48 h. Optical density was measured at 630 nm, and background optical densities were subtracted from that of each well. The definition of MIC is the lowest concentration at which 80% of tested strains cannot grow.

[2] = test system: C. albicans SC5314; conditions: SC5314, 48 h
Protocol: as §1, §2, §3

[3] = test system: C. albicans 904; conditions: for Minimum inhibitory concentration (MIC): 904, 48 h
Protocol: as §1, §2, §3

[4] = test system: C. parapsilosis ATCC 22010; conditions: for Minimum inhibitory concentration (MIC): ATCC 22010, 48 h
Protocol: as §1, §2, §3

[5] = test system: C. auris 918; conditions: for Minimum inhibitory concentration (MIC): 918, 48 h
Protocol: as §1, §2, §3

[6] = test system: C. tropicalis 895; conditions: for Minimum inhibitory concentration (MIC): 895, 48 h
Protocol: as §1, §2, §3

[7] = test system: C. tropicalis ATCC 20026; conditions: for Minimum inhibitory concentration (MIC): ATCC 20026, 48 h
Protocol: as §1, §2, §3

[8] = test system: C. krusei ATCC 2340; conditions: for Minimum inhibitory concentration (MIC): ATCC 2340, 48 h
Protocol: as §1, §2, §3

[9] = test system: C. auris 919; conditions: for Minimum inhibitory concentration (MIC): 919, 48 h
Protocol: as §1, §2, §3

[10] = test system: C. glabrata ATCC 1182; conditions: for Minimum inhibitory concentration (MIC): ATCC 1182, 48 h
Protocol: as §1, §2, §3

[11] = test system: C. albicans 901; conditions: for Minimum inhibitory concentration (MIC): 901, 48 h
Protocol: as §1, §2, §3

[12] = Candidozyma auris, 48 h, read-out: Minimum inhibitory concentration (MIC)

OC(Cn1cncn1)(Cn1cncn1)c1ccc(F)cc1F [Fluconazole, reference compound]
> 64 µg/mL: MIC ([3]; Candida albicans, 904, 48 h, read-out: Minimum inhibitory concentration (MIC)) | MIC ([11]; Candida albicans, 901, 48 h, read-out: Minimum inhibitory concentration (MIC))
2 µg/mL: MIC ([10]; Nakaseomyces glabratus, ATCC1182, 48 h, read-out: Minimum inhibitory concentration (MIC))
0.5 µg/mL: MIC ([2]; Candida albicans, read-out: Minimum inhibitory concentration (MIC))
1 µg/mL: MIC ([4]; Lodderomyces parapsilosis, ATCC22010, 48 h, read-out: Minimum inhibitory concentration (MIC)) | MIC ([7]; Candida tropicalis, ATCC20026, 48 h, read-out: Minimum inhibitory concentration (MIC))
64 µg/mL: MIC ([8]; Pichia kudriavzevii, ATCC2340, 48 h, read-out: Minimum inhibitory concentration (MIC))
> 128 µg/mL: MIC ([1]; Nakaseomyces glabratus, 48 h, read-out: Minimum inhibitory concentration (MIC)) | MIC [5, 12] | MIC ([6]; Candida tropicalis, 895, 48 h, read-out: Minimum inhibitory concentration (MIC)) | MIC [9, 12]

CC[C@H](C)[C@H](NC(=O)[C@H](CCCCN)NC(=O)[C@H](CCCCN)NC(=O)[C@@H](NC(=O)[C@]1(C)CCCC=CCCC[C@](C)(NC(C)=O)C(=O)N[C@@H](CC(C)C)C(=O)N[C@@H](Cc2ccccc2)C(=O)N[C@@H](CC(=O)O)C(=O)N1)[C@@H](C)CC)C(=O)N[C@@H](C)C(=O)N[C@@H](CCC(=O)O)C(=O)N[C@@H](CO)C(=O)N[C@@H](Cc1ccccc1)C(N)=O [Sau-1] (Ac-[S5]LFD[S5]IKKIAESF-NH2; staple 1-5)
128 µg/mL: Minimum inhibitory concentration (MIC) [4]
>128 µg/mL: Minimum inhibitory concentration (MIC) [1] | Minimum inhibitory concentration (MIC) [3] | Minimum inhibitory concentration (MIC) [5] | Minimum inhibitory concentration (MIC) [6] | Minimum inhibitory concentration (MIC) [7] | Minimum inhibitory concentration (MIC) [8] | Minimum inhibitory concentration (MIC) [9] | Minimum inhibitory concentration (MIC) [10]
32 µg/mL: Minimum inhibitory concentration (MIC) [11]
>64 µg/mL: Minimum inhibitory concentration (MIC) [2]

CC[C@H](C)[C@H](NC(=O)[C@H](CCCCN)NC(=O)[C@H](CCCCN)NC(=O)[C@]1(C)CCCC=CCCC[C@](C)(NC(=O)CNC(C)=O)C(=O)N[C@@H](Cc2ccccc2)C(=O)N[C@@H](CC(=O)O)C(=O)N[C@@H]([C@@H](C)CC)C(=O)N1)C(=O)N[C@@H](C)C(=O)N[C@@H](CCC(=O)O)C(=O)N[C@@H](CO)C(=O)N[C@@H](Cc1ccccc1)C(N)=O [Sau-2] (Ac-G[S5]FDI[S5]KKIAESF-NH2; staple 2-6)
>128 µg/mL: Minimum inhibitory concentration (MIC) [3] | Minimum inhibitory concentration (MIC) [4] | Minimum inhibitory concentration (MIC) [5] | Minimum inhibitory concentration (MIC) [7] | Minimum inhibitory concentration (MIC) [8] | Minimum inhibitory concentration (MIC) [9] | Minimum inhibitory concentration (MIC) [10] | Minimum inhibitory concentration (MIC) [11]
16 µg/mL: Minimum inhibitory concentration (MIC) [6]
128 µg/mL: Minimum inhibitory concentration (MIC) [1]
>64 µg/mL: Minimum inhibitory concentration (MIC) [2]

CC[C@H](C)[C@H](NC(=O)[C@H](CCCCN)NC(=O)[C@]1(C)CCCC=CCCC[C@](C)(NC(=O)[C@H](CC(C)C)NC(=O)CNC(C)=O)C(=O)N[C@@H](CC(=O)O)C(=O)N[C@@H]([C@@H](C)CC)C(=O)N[C@@H]([C@@H](C)CC)C(=O)N1)C(=O)N[C@@H](C)C(=O)N[C@@H](CCC(=O)O)C(=O)N[C@@H](CO)C(=O)N[C@@H](Cc1ccccc1)C(N)=O [Sau-3] (Ac-GL[S5]DII[S5]KIAESF-NH2; staple 3-7)
>64 µg/mL: Minimum inhibitory concentration (MIC) [2]
>128 µg/mL: Minimum inhibitory concentration (MIC) [1] | Minimum inhibitory concentration (MIC) [3] | Minimum inhibitory concentration (MIC) [4] | Minimum inhibitory concentration (MIC) [5] | Minimum inhibitory concentration (MIC) [6] | Minimum inhibitory concentration (MIC) [7] | Minimum inhibitory concentration (MIC) [8] | Minimum inhibitory concentration (MIC) [9] | Minimum inhibitory concentration (MIC) [10] | Minimum inhibitory concentration (MIC) [11]

CC[C@H](C)[C@@H]1NC(=O)[C@H]([C@@H](C)CC)NC(=O)[C@@](C)(NC(=O)[C@H](Cc2ccccc2)NC(=O)[C@H](CC(C)C)NC(=O)CNC(C)=O)CCCC=CCCC[C@@](C)(C(=O)N[C@H](C(=O)N[C@@H](C)C(=O)N[C@@H](CCC(=O)O)C(=O)N[C@@H](CO)C(=O)N[C@@H](Cc2ccccc2)C(N)=O)[C@@H](C)CC)NC(=O)[C@H](CCCCN)NC1=O [Sau-4] (Ac-GLF[S5]IIK[S5]IAESF-NH2; staple 4-8)
>64 µg/mL: Minimum inhibitory concentration (MIC) [2]
>128 µg/mL: Minimum inhibitory concentration (MIC) [1] | Minimum inhibitory concentration (MIC) [3] | Minimum inhibitory concentration (MIC) [4] | Minimum inhibitory concentration (MIC) [5] | Minimum inhibitory concentration (MIC) [6] | Minimum inhibitory concentration (MIC) [7] | Minimum inhibitory concentration (MIC) [8] | Minimum inhibitory concentration (MIC) [9] | Minimum inhibitory concentration (MIC) [10] | Minimum inhibitory concentration (MIC) [11]

CC[C@H](C)[C@H](NC(=O)[C@H](CC(=O)O)NC(=O)[C@H](Cc1ccccc1)NC(=O)[C@H](CC(C)C)NC(=O)CNC(C)=O)C(=O)N[C@@]1(C)CCCC=CCCC[C@@](C)(C(=O)N[C@@H](CCC(=O)O)C(=O)N[C@@H](CO)C(=O)N[C@@H](Cc2ccccc2)C(N)=O)NC(=O)[C@H]([C@@H](C)CC)NC(=O)[C@H](CCCCN)NC(=O)[C@H](CCCCN)NC1=O [Sau-6] (Ac-GLFDI[S5]KKI[S5]ESF-NH2; staple 6-10)
>128 µg/mL: Minimum inhibitory concentration (MIC) [1] | Minimum inhibitory concentration (MIC) [3] | Minimum inhibitory concentration (MIC) [4] | Minimum inhibitory concentration (MIC) [5] | Minimum inhibitory concentration (MIC) [6] | Minimum inhibitory concentration (MIC) [7] | Minimum inhibitory concentration (MIC) [8] | Minimum inhibitory concentration (MIC) [9] | Minimum inhibitory concentration (MIC) [10] | Minimum inhibitory concentration (MIC) [11]
>64 µg/mL: Minimum inhibitory concentration (MIC) [2]

CC[C@H](C)[C@@H]1NC(=O)[C@H](CCCCN)NC(=O)[C@@](C)(NC(=O)[C@@H](NC(=O)[C@@H](NC(=O)[C@H](CC(=O)O)NC(=O)[C@H](Cc2ccccc2)NC(=O)[C@H](CC(C)C)NC(=O)CNC(C)=O)[C@@H](C)CC)[C@@H](C)CC)CCCC=CCCC[C@@](C)(C(=O)N[C@@H](CO)C(=O)N[C@@H](Cc2ccccc2)C(N)=O)NC(=O)[C@H](C)NC1=O [Sau-7] (Ac-GLFDII[S5]KIA[S5]SF-NH2; staple 7-11)
>64 µg/mL: Minimum inhibitory concentration (MIC) [2]
>128 µg/mL: Minimum inhibitory concentration (MIC) [1] | Minimum inhibitory concentration (MIC) [3] | Minimum inhibitory concentration (MIC) [4] | Minimum inhibitory concentration (MIC) [5] | Minimum inhibitory concentration (MIC) [6] | Minimum inhibitory concentration (MIC) [7] | Minimum inhibitory concentration (MIC) [8] | Minimum inhibitory concentration (MIC) [9] | Minimum inhibitory concentration (MIC) [10] | Minimum inhibitory concentration (MIC) [11]

CC[C@H](C)[C@H](NC(=O)[C@H](CC(=O)O)NC(=O)[C@H](Cc1ccccc1)NC(=O)[C@H](CC(C)C)NC(=O)CNC(C)=O)C(=O)N[C@H](C(=O)N[C@@H](CCCCN)C(=O)N[C@@]1(C)CCCC=CCCC[C@@](C)(C(=O)N[C@@H](Cc2ccccc2)C(N)=O)NC(=O)[C@H](CCC(=O)O)NC(=O)[C@H](C)NC(=O)[C@H]([C@@H](C)CC)NC1=O)[C@@H](C)CC [Sau-8] (Ac-GLFDIIK[S5]IAE[S5]F-NH2; staple 8-12)
>128 µg/mL: Minimum inhibitory concentration (MIC) [1] | Minimum inhibitory concentration (MIC) [3] | Minimum inhibitory concentration (MIC) [4] | Minimum inhibitory concentration (MIC) [5] | Minimum inhibitory concentration (MIC) [6] | Minimum inhibitory concentration (MIC) [7] | Minimum inhibitory concentration (MIC) [8] | Minimum inhibitory concentration (MIC) [9] | Minimum inhibitory concentration (MIC) [10] | Minimum inhibitory concentration (MIC) [11]
>64 µg/mL: Minimum inhibitory concentration (MIC) [2]
